Experimental data: US20080050764A1, “Method and Apparatus for Measuring Enviromental Allergen” (Japan Science and Technology Agency, priority 2003, published 2008)
“Also recorded” adds a separate entry of the source. * marks the point of attachment. AMC = Cc1cc(=O)oc2cc(N*)ccc12; Boc = CC(C)(C)OC(=O)*

What was measured:
[1] = system: Mite Extract Df (Mite dermatophagoides farinae); assay: Protease substrate cleavage by mite extract, fluorescence (Example 9); type: biochemical; settings: substrate 10 mM in DMSO, room temperature overnight, excitation 355 nm
Experimental: • Mite Extract Df (Mite dermatophagoides farinae) (obtained by extracting mites with phosphate buffer and freeze-drying the soluble fragment) (produced by LSL) • Protease Substrates (Met-MCA, Boc-Gln-Ala-Arg-MCA, Boc-Val-Leu-Lys-MCA, Bz-Arg-MCA, Glt-Ala-Ala-Phe-MCA (Glt means glutaryl) (All of them were produced by PEPTIDE INSTITUTE INC)
In phosphate buffer or water, mites were suspended to a concentration of 1 mg/ml, and the suspension was diluted with phosphate buffer as appropriate. Each of the dilutions in an amount of 50 μL was mixed with 5 μL of the substrate dissolved in DMSO to a concentration of 10 mM, and the resulting mixture was incubated at room temperature overnight. Using a plate reader, excitation was carried out at a wavelength of 355 nm, and fluorescence intensity at 460 nm was measured.

[2] = system: Cedar Pollen (Cedar Pollen-Cj Japanese Cedar); assay: Measurement of cedar pollen with protease substrates, fluorescence (Example 7); type: biochemical; settings: substrate 10 mM in DMSO, 37° C. 15 minutes, excitation 355 nm
Experimental: • Cedar Pollen (Cedar Pollen-Cj Japanese Cedar) (produced by LSL) • Leu-MCA and Boc-Val-Leu-Lys-MCA as protease substrates (both of them were produced by PEPTIDE INSTITUTE INC)
Cedar pollen was suspended in phosphate buffer to a concentration of 1 mg/ml and the suspension was diluted with phosphate buffer as appropriate. Each of the dilutions in an amount of 45 μL was mixed with 5 μL of the substrate dissolved in DMSO to a concentration of 10 mM, and the resulting mixture was incubated at 37° C. for 15 minutes. Using a plate reader, excitation was carried out at a wavelength of 355 nm, and fluorescence intensity at 460 nm was measured.

Cedar Pollen Extract = assay: Quantification of cedar pollen extract with protease substrates, fluorescence (Example 8); type: biochemical, Japanese Cedar; settings: substrate 10 mM in DMSO, 37° C. 15 minutes, excitation 355 nm
Experimental: • Cedar Pollen Extract (Cedar Pollen Extrace-CJ) (produced by LSL) • Leu-MCA and Boc-Val-Leu-Lys-MCA as protease substrates (both of them were produced by PEPTIDE INSTITUTE INC)
The cedar pollen extract was the centrifugation supernatant obtained by stirring cedar pollen in 0.125 M NaHCO3 (pH8) for 16 hours, and lightly homogenizing the mixture, followed by centrifugation. The extract was suspended in 5 mM borate buffer (pH8.0) containing 0.9% NaCl to a concentration of 666 μg/ml, and the resulting mixture was diluted with phosphate buffer as appropriate. Each of the samples in an amount of 45 μL was mixed with 5 μL of the substrate dissolved in DMSO to a concentration of 10 mM, and the resulting mixture was incubated at 37° C. for 15 minutes. Using a plate reader, excitation was carried out at a wavelength of 355 nm, and fluorescence intensity at 460 nm was measured.

| Compound | cleavage of substrate by mite antigen (fluorescence intensity at 460 nm) [1] | reaction of substrate with cedar pollen (fluorescence intensity at 460 nm) [2] | reaction of substrate with cedar pollen extract (fluorescence intensity at 460 nm) (Cedar Pollen Extract) |
| --- | --- | --- | --- |
| Boc-Val-Leu-Lys-{AMC} | effectively measured; also recorded: reacts | fluorescence was not dependent on the amount of cedar pollen; also recorded: does not react | fluorescence was not dependent on the amount of cedar pollen |
| Boc-Gln-Ala-Arg-{AMC} | effectively measured |  |  |
| Cc1cc(=O)oc2cc(NC(=O)C(N)CC(C)C)ccc12 (stereo not drawn) [Leu-MCA] |  | reacts |  |
| Glt-Ala-Ala-Phe-MCA | not substantially cleaved |  |  |
| Cl.NC(N)=NCCCC(NC(=O)c1ccccc1)C(=O)Nc1ccc([N+](=O)[O-])cc1 (racemic) [Bz-DL-Arg-pNA.HCl] |  | reacts |  |
| CSCCC(N)C(=O)Nc1ccc2c(C)cc(=O)oc2c1 (stereo not drawn) [Met-MCA] | effectively measured |  |  |
| Cc1cc(=O)oc2cc(NC(=O)[C@H](CCCNC(=N)N)NC(=O)c3ccccc3)ccc12 [Bz-Arg-MCA] | not substantially cleaved |  |  |
